Data from the Kinase Knowledgebase extract (Sharma et al. 2016).

Target: MAPK14 (human) (UniProt Q16539)
Assay: Inhibition of MAPK14 Kinase Assay

Chain of MAPK14 (human) (Q16539 whole entry, looked up): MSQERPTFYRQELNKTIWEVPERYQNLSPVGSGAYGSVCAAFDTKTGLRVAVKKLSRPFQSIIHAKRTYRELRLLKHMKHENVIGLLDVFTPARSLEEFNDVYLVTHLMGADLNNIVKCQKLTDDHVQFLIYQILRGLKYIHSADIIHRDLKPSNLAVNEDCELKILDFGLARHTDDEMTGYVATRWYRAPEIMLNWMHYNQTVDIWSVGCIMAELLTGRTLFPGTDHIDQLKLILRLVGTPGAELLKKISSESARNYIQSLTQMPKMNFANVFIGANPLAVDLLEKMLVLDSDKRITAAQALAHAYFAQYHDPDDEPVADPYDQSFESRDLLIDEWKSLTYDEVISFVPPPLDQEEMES

SMILES | IC50 [µM]
CSc1nc(-c2ccc(F)cc2)c(-c2ccncc2)n1NC(C)=O | 0.84
Cn1nc(-c2ccc(F)cc2)c(-c2ccncc2)c1NC(=O)Cc1ccc(F)cc1 | 0.029
CSc1nc(-c2ccc(F)cc2)c(-c2ccncc2)n1N | 1.88
CSc1nc(-c2ccc(F)cc2)c(-c2ccncc2)n1NC(=O)Cc1ccccc1Cl | 0.058
Cn1nc(-c2ccc(F)cc2)c(-c2ccncc2)c1NC(=O)Cc1ccccc1Cl | 0.071
CSc1nc(-c2ccc(F)cc2)c(-c2ccncc2)n1NC(=O)Nc1ccc(F)cc1 | 0.145
CSc1nc(-c2ccc(F)cc2)c(-c2ccncc2)n1NC(=O)c1cc2ccccc2o1 | 0.873
CSc1nc(-c2ccc(F)cc2)c(-c2ccncc2)n1NC(=O)c1ccc(C)c(F)c1 | 0.242
CSc1nc(-c2ccc(F)cc2)c(-c2ccncc2)n1NC(=O)COc1ccccc1 | 1.08
CC(C(=O)Nc1onc(-c2ccc(F)cc2)c1-c1ccncc1)c1ccccc1 (stereo not given) | 0.107
O=C(Cc1ccc(F)cc1)Nc1onc(-c2ccc(F)cc2)c1-c1ccncc1 | 0.113
CSc1nc(-c2ccc(F)cc2)c(-c2ccncc2)n1NC(=O)c1ccco1 | 0.308
CSc1nc(-c2ccc(F)cc2)c(-c2ccncc2)n1NC(=O)c1ccccc1 | 0.314
CSc1nc(-c2ccc(F)cc2)c(-c2ccncc2)n1NC(=O)Cc1ccc(F)cc1 | 0.244
CSc1nc(-c2ccc(F)cc2)c(-c2ccncc2)n1NC(=O)C(C)c1ccccc1 (stereo not given) | 0.095
